Consider 15 molecules from patent US20070179161A1, “Pyrazolopyrimidine compounds and their use in medicine” (VERNALIS (CAMBRIDGE) LIMITED., priority 2003, published 2007).

Format in all cases: biochemical
Assay [1] deals with CDK-2 enzyme, complexed with cyclin A (Homo sapiens, UniProt P24941). Nature of the assay: CDK2 enzyme inhibition assay (33P phosphorylation of peptide […], filter plate). As to conditions: CDK-2/cyclin A, 0.1 mM ATP, 40 min at 30° C. As to the method:
(§1) The assay mixture containing the inhibitor and CDK-2 enzyme, complexed with cyclin A (0.4 U/ml) was mixed together in a microtiter plate in a final volume of 50 μl and incubated for 40 min at 30° C. The assay mixture contained 0.1 mM unlabeled ATP, 0.01 μCi/μl ^33P-γ-ATP, 0.03 mM peptide, 0.1 mg/ml BSA, 7.5 mM magnesium acetate, 50 mM HEPES-NaOH, pH 7.5. The reaction was stopped by adding 50 μl of 50 mM phosphoric acid. 90 μl of the mixture were transferred to a pre-wetted 96-well Multiscreen MAPHNOB filtration plate (Millipore) and filtered on a vacuum manifold. […] The filtration plate was dried for 10 min at 65° C., scintillant added and phosphorylated peptide quantified in a scintillation counter (Trilux, PerkinElmer)
HEPES is N-[2-Hydroxyethyl]piperazine-N′-[2-ethanesulfonic acid] BSA is bovine serum albumin.

The target in another assay is T1, GST-Chk1 enzyme (Homo sapiens, UniProt O14757).
T1 sequence (O14757 1-476): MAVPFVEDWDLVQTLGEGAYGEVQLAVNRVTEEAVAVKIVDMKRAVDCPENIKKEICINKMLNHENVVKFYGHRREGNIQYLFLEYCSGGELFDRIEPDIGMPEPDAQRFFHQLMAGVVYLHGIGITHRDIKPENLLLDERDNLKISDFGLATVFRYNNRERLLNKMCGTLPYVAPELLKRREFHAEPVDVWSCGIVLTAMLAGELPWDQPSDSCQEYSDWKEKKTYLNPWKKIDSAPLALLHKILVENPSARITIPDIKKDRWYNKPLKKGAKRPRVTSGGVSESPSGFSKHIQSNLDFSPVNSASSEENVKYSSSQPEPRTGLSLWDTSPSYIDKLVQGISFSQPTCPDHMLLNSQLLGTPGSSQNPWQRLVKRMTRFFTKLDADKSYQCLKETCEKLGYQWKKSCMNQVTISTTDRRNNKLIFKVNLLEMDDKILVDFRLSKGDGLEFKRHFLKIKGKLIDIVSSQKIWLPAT
Kind of assay: Chk1 kinase inhibition assay (33P phosphorylation of Chktide, filter plate). The settings on record: 0.01 mM ATP, 11 nM GST-Chk1, 40 minutes at 30° C.; read-out: Chk1 IC50. As to the method:
The assay mixture containing the inhibitor and Chk1 enzyme was mixed together in a microtiter plate in a final volume of 50 μl and incubated for 40 minutes at 30° C.
The reaction was stopped by adding 50 μl of 50 mM phosphoric acid. 90 μl of the mixture was transferred to a pre-wetted 96-well Multiscreen MAPHNOB filtration plate (Millipore) and filtered on a vacuum manifold. […] The filtration plate was dried for 10 min at 65° C., scintillant added and phosphorylated peptide quantified in a scintillation counter (Trilux, PerkinElmer)

Another assay concerns the target T2, PDK1 enzyme (Homo sapiens, UniProt O15530).
T2 sequence (O15530 1-556): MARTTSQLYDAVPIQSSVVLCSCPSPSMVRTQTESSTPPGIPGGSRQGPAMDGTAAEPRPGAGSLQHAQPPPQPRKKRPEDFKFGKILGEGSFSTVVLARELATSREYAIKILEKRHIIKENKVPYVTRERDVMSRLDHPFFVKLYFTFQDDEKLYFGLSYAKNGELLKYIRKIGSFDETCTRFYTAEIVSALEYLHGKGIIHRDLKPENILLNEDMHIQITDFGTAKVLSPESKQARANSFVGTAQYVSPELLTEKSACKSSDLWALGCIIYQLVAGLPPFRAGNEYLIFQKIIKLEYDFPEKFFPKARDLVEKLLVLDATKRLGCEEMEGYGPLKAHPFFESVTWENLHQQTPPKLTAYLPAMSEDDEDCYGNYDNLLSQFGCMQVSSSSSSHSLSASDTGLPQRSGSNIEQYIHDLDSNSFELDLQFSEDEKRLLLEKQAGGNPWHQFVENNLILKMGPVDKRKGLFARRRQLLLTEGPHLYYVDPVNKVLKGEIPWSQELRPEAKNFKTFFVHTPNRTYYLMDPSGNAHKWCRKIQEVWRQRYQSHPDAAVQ
Kind of assay: PDK1 kinase inhibition assay (33P phosphorylation of synthetic peptide, filter plate). The settings on record: 0.01 mM ATP, 60 min at 30° C.; read-out: PDK1 IC50. As to the method:
as §1, with “and PDK1 enzyme” for “and CDK-2 enzyme, complexed with cyclin A (0.4 U/ml)”, “for 60” for “for 40”, “contained 0.01” for “contained 0.1”, “^33P-γ-ATP, 0.075” for “^33P-γ-ATP, 0.03”, “acetate, 0.05M Tris.HCl,” for “acetate, 50 mM HEPES-NaOH,”, “pH 7.5, 0.5% 2-mercaptoethanol.” for “pH 7.5.”

The term IC50 denotes the concentration at which inhibition is half-maximal. `Cc1cccc(-c2cc(Nc3ccc(S(=O)(=O)Nc4nccs4)cc3)n3nccc3n2)c1` [Example 17]: the IC50 in assay [1] was 3.17 µM; at GST-Chk1 enzyme, more than 200 µM; at PDK1 enzyme it was 31.6 µM.
Turning to `CC(C)COc1cc(Nc2ccc(S(=O)(=O)NCCN(C)C)cc2)n2ncc(C(C)C)c2n1` [Example 90], the IC50 was 0.373 µM in assay [1], 5.42 µM at GST-Chk1 enzyme and more than 200 µM at PDK1 enzyme.
Taken in the same sequence, the figures for `NC(=O)c1ccc(Nc2cc(Cl)nc3c(Br)cnn23)cc1` [Example 145] were 0.08 µM, 11 µM and more than 50 µM.
With `CN(C)S(=O)(=O)c1ccc(Nc2cc(Cl)nc3c(-c4ccsc4)cnn23)cc1` [Example 156], the IC50 in assay [1] is 24.9 µM; on GST-Chk1 enzyme it was more than 200 µM; at PDK1 enzyme, 10 µM.
For the molecule `CS(=O)(=O)c1ccc(Nc2cc(Cl)nc3c(Cc4ccccc4)cnn23)cc1` [Example 23], the 50% inhibitory concentration (IC50) (in assay [1]; at GST-Chk1 enzyme; on PDK1 enzyme) was more than 200 µM each time.
In the case of `O=S(=O)(c1ccc(Nc2cc(Cl)nc3ccnn23)cc1)N1CCOCC1` [Example 9], the results for the IC50 (in assay [1]; at GST-Chk1 enzyme; at PDK1 enzyme) were 0.99 µM, more than 200 µM and more than 200 µM, respectively.
Take `COCCN(C)S(=O)(=O)c1ccc(Nc2cc(Cl)nc3c(C(C)C)cnn23)cc1` [Example 96]: the IC50 was 0.124 µM in assay [1], more than 200 µM at GST-Chk1 enzyme and more than 200 µM at PDK1 enzyme.
For the molecule `CC(C)c1cnn2c(Nc3ccc(S(=O)(=O)N(C)C)cc3)cc(N3CCC(CN(C)C)CC3)nc12` [Example 105], the IC50 in assay [1] was 5.98 µM; at GST-Chk1 enzyme, more than 200 µM; on PDK1 enzyme, more than 200 µM.
For the molecule `CC(C)c1cnn2c(Nc3ccc(S(=O)(=O)NCCN(C)C)cc3)cc(Cl)nc12` [Example 77], the IC50 in assay [1] was 0.039 µM; on GST-Chk1 enzyme, more than 200 µM; on PDK1 enzyme, 9.49 µM.
For `CC(C)c1cnn2c(Nc3ccc(S(=O)(=O)N(C)C)cc3)cc(N3CCCCC3)nc12` [Example 50], the IC50 in assay [1] was 1.01 µM; on GST-Chk1 enzyme, more than 200 µM; at PDK1 enzyme it was more than 200 µM.
Take `CC(C)c1cnn2c(Nc3ccc(S(=O)(=O)N(C)CCN(C)C)cc3)cc(N[C@H]3CC[C@H](N)CC3)nc12` [Example 99]: the IC50 in assay [1] turned out to be 0.128 µM; on GST-Chk1 enzyme, 0.953 µM; at PDK1 enzyme, 6.91 µM.
Taken in the same sequence, the figures for `CNS(=O)(=O)c1ccc(Nc2cc(N[C@H]3CC[C@H](N)CC3)nc3c(C(C)C)cnn23)cc1` [Example 67] were 0.03 µM, more than 200 µM and 4.64 µM.
In the case of `CC(C)c1cnn2c(Nc3ccc(S(=O)(=O)N(C)C)cc3)cc(OC3CCN(C)C3)nc12` (stereo not drawn) [Example 70], the IC50 in assay [1] is 0.32 µM; at GST-Chk1 enzyme, 79.9 µM; on PDK1 enzyme it was more than 200 µM.
For the molecule `CC(C)c1cnn2c(Nc3ccc(S(=O)(=O)N(C)C)cc3)cc(C(=O)O)nc12` [Example 117], the IC50 in assay [1] was 23.3 µM; at GST-Chk1 enzyme, more than 200 µM; on PDK1 enzyme it was more than 200 µM.
With `CC(C)c1cnn2c(Nc3ccc(S(=O)(=O)N(C)C)cc3)cc(NC3CCCC(N)C3)nc12` (stereo not drawn) [Example 113], the values for the IC50 (in assay [1]; at GST-Chk1 enzyme; at PDK1 enzyme) were 2.05 µM, 2.2 µM and 3.12 µM, respectively.
